{
  "source": "patent US8604044B2",
  "about": "“Quinazoline based EGFR inhibitors containing a zinc binding moiety” (Curis, Inc., priority 2006, dated 2013)",
  "key": {"A549 NSCLC Xenograft": {"tested_on": "A549 NSCLC Xenograft", "test": "A549 NSCLC xenograft model", "type": "in vivo, mice", "settings": "FIG. 11B", "procedure": "1-10×10^6 human cancer cells were implanted subcutaneously to the athymic (nu/nu) mice. When the tumors reached about 100 mm^3 in volume, the mice were treated with the compound by tail vein infusion. Routinely 5 groups (8-12 mice per group) are needed for a typical efficacy study, including one negative control, one positive control, and three testing groups for 3 dose levels of the same compound. Usually a 7-7-5 (on-off-on) regimen was used for one typical study. The tumor size was measured with an electronic caliper and body weight measured with a scale twice weekly. The tumors were removed from euthanized mice at the end of the study. One half of each tumor was frozen in dry ice and stored at −80° C. for PK or Western blot analysis. The other half was fixed with formalin. The fixed tissues were processed, embedded in paraffin and sectioned for immunohistochemistry staining."}, "HDAC": {"tested_on": "HDAC", "test": "HDAC fluorimetric assay (HDAC enzymatic activity, HeLa nuclear extract)", "type": "biochemical", "settings": "HeLa nuclear extract; read-out: HDAC IC50 grading", "procedure": "HDAC inhibitors were screened using an HDAC fluorimetric assay kit (AK-500, Biomol, Plymouth Meeting, Pa.).\nEach assay was setup as follows: Defrosted all kit components and kept on ice until use. […] Prepared dilutions of Trichostatin A (TSA, positive control) and tested compounds in assay buffer (5× of final concentration). Diluted Fluor de Lys™ Substrate in assay buffer to 100 uM (50 fold=2× final). Diluted Fluor de Lys™ developer concentrate 20-fold (e.g. 50 μl plus 950 μl Assay Buffer) in cold assay buffer. Second, diluted the 0.2 mM Trichostatin A 100-fold in the 1× Developer (e.g. 10 μl in 1 ml; final Trichostatin A concentration in the 1× Developer=2 μM; final concentration after addition to HDAC/Substrate reaction=1 μM). Added Assay buffer, diluted trichostatin A or test inhibitor to appropriate wells of the microtiter plate. Added diluted HeLa extract or other HDAC sample to all wells except for negative controls."}, "HER2": {"target": "T1, HER2 (Homo sapiens, UniProt P04626)", "T1 construct": "human HER2 amino acids 679-1255; host or cells: baculovirus in Sf9 insect cells", "T1 sequence (P04626 679-1255)": "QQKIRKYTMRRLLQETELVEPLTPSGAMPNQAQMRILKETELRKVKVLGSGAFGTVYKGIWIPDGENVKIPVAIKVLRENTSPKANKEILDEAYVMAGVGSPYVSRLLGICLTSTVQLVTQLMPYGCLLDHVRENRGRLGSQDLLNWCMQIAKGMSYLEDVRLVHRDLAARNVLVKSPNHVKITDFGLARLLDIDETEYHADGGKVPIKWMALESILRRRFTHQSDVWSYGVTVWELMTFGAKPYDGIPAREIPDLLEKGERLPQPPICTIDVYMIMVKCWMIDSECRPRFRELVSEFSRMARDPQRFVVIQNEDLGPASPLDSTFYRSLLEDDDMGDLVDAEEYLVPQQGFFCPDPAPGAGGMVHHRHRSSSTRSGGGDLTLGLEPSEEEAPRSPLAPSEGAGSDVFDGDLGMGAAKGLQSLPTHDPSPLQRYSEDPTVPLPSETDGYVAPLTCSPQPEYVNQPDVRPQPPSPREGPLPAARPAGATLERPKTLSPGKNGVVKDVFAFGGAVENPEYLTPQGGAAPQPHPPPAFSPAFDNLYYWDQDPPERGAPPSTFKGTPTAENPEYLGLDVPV", "test": "Radioisotope assay for HER2", "type": "biochemical", "settings": "read-out: HER2/ErB2 IC50 grading", "procedure": "Protocol for Radioisotope Assay for HER2\n10 nM HER2 and 0.1 mg/ml polyEY were placed in the reaction buffer and 2 mM MnCl2, 1 μM ATP and 1% DMSO final were added. The reaction mixture was incubated for 2 hours at room temperature.\nMW=91.6 kDa. […] Enzyme is in 25 mM Tris-HCl, pH 8.0, 100 mM NaCl, 0.05% Tween-20, 50% glycerol, 10 mM reduced glutathione, and 3 mM DTT."}, "human EGFR": {"target": "T2, human EGFR (Homo sapiens, UniProt P00533)", "T2 construct": "human EGFR (His672-Ala1210); purchased Cell Signaling Technologies; host or cells: baculovirus expression system", "T2 sequence (P00533 672-1210)": "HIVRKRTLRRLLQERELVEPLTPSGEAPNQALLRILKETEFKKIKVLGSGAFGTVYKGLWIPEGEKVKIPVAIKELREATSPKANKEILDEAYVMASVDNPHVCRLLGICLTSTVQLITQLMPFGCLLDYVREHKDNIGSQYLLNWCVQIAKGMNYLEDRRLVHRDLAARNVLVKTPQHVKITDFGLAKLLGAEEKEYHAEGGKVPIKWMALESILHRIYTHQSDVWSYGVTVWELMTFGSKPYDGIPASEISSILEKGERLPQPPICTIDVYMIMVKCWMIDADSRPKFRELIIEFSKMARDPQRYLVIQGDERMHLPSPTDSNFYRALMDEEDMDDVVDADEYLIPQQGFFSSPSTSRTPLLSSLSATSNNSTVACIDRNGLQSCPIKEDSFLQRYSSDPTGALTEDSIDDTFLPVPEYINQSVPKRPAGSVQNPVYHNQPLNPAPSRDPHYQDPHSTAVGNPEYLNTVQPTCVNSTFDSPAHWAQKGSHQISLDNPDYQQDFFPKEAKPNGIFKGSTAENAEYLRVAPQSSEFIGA", "test": "HTScan EGF Receptor Kinase Assay", "type": "biochemical", "settings": "read-out: EGFR IC50 grading", "procedure": "The ability of compounds to inhibit receptor kinase (EGFR) activity was assayed using HTScan™ EGF Receptor Kinase Assay Kits (Cell Signaling Technologies, Danvers, Mass.). […] The protein was purified by one-step affinity chromatography using glutathione-agarose.\nImmediately transfer enzyme from −80° C. to ice. Allowed enzyme to thaw on ice. […] Returned immediately to ice. […] Incubated reaction plate at room temperature for 30 minutes. […] Added 100 μl/well primary antibody. Incubated at room temperature for 60 minutes. […] Added 100 μl/well diluted antibody. Incubated at room temperature for 30 minutes. […] Incubated at room temperature for 5 minutes."}},
  "data": [
    {"compound": "C#Cc1cccc(Nc2ncnc3cc(OCCOC)c(OCCOC)cc23)c1", "note": "[Erlotinib]", "values": [
      {"measurement": "effect on tumor size as compared to control", "setting": "A549 NSCLC Xenograft", "value": "did not significantly affect tumor size"}
    ]},
    {"compound": "COc1cc2ncnc(NCc3ccc(F)c(Cl)c3)c2cc1OCCCCCCC(=O)NO", "note": "[Compound 88, 7-(4-(3-chloro-4-fluorobenzylamino)-7-methoxyquinazolin-6-yloxy)-N-hydroxyheptanamide]", "values": [
      {"measurement": "melting point", "value": "143.1 °C (dec.)"},
      {"measurement": "IC50", "setting": "HDAC", "value": "< 100", "unit": "nM"},
      {"measurement": "IC50", "setting": "HER2", "value": "1000 to 10000", "unit": "nM"}
    ]},
    {"compound": "O=C(CCCCCNCc1ccc(-c2ccc3ncnc(Nc4ccc(OCc5cccc(F)c5)c(Cl)c4)c3c2)o1)NO", "note": "[Compound 177, 6-((5-(4-(3-chloro-4-(3-fluorobenzyloxy)phenylamino)quinazolin-6-yl)furan-2-yl)methylamino)-N-hydroxyhexanamide]", "values": [
      {"measurement": "melting point", "value": 121, "unit": "°C"},
      {"measurement": "IC50", "setting": "HDAC", "value": "100 to 1000", "unit": "nM"},
      {"measurement": "IC50", "setting": "HER2", "value": "< 100", "unit": "nM"},
      {"measurement": "IC50", "setting": "human EGFR", "value": "< 100", "unit": "nM"}
    ]}
  ]
}
